Earlier results as cited in patent US20240108579A1, “UTIDELONE LIPOSOME COMPOSITION, AND PREPARATION METHOD THEREFOR AND USE THEREOF” (Chengdu Biostar Pharmaceuticals, LTD., priority 2021, published 2024).
Where two headings read alike, the source gives them in different places.

CC1=CCC(C(C)=Cc2csc(C)n2)OC(=O)CC(O)C(C)(C)C(=O)C(C)C(O)C(C)CCC1 (stereo not drawn) [Utidelone, 4,8-dihydroxy-5,5,7,9,13-pentamethyl-16-[1-methyl-2-(2-methyl-thiazole-4-yl)-vinyl]-hexadecoxetane-13-en-2,6-one lactone]
solubility (in words) (ethanol, methanol, ethyl acetate, and chloroform): easily soluble
saturated solubility in water (water): less than 1 μg/ml
solubility (in words) (water): insoluble
